Source: US20250388896A1, “COMPOSITION AND METHODS FOR TRANSGENE INSERTION” (ARTISAN DEVELOPMENT LABS, INC, priority 2022, published 2025)

How the values were obtained:
Type in all cases: cell-based, human
[1] = system: predicted off-target sites; assay: INDEL frequency at predicted off-target sites by targeted deep sequencing; conditions: Jurkat cells
Description: Extracted genomic DNA was quantified using the NanoDrop (ThermoFisher Scientific). […] Amplification products were purified with Agencourt AMPure XP beads (Ramcon), using the sample to beads ratio of 1:1.8. The DNA was eluted from the beads with nuclease-free water and the size of the purified amplicons analyzed on a 2% agarose E-gel using the E-gel electrophoresis system (ThermoFisher Scientific). In the second PCR, unique pairs of Illumina-compatible indexes (Nextera XT Index Kit v2) were added to the amplicons using the KAPA HiFi HotStart Ready Mix (Roche). The amplified products were purified with Agencourt AMPure XP beads (Ramcon), using the sample to bead ratio of 1:1.8. […] Sizes of the purified DNA fragments were validated on a 2% agarose gel using the E-gel electrophoresis system (ThermoFisher Scientific), quantified using Qubit dsDNA HS Assay Kit (Thermo Fisher) and then pooled in equimolar concentrations. […] The final library was sequenced on Illumina MiSeq System using the MiSeq Reagent Kit v.2 (300 cycles, 2×250 bp, paired-end reads). […]
Initial quality assessment of the obtained reads was performed with FastQC36. […] For the ORF disruption analysis, CRISPRessoBatch command with the parameters --cleavage_offset 1 -coding_seq <EXON_SEQ> --quantification_window_size 0 --quantification_window_center 1 --expand_ambiguous_alignments was used. […]

[2] = system: eight different loci (PDCD1, TIM3, LAG3, TIGIT, CTLA4, PTPN6, PTPN11, CD247); assay: gNA screen and validation: INDEL and frameshift frequency at eight loci by amplicon sequencing; conditions: Jurkat cells; gNAs adjacent to all YTTN PAM variants
Description: (§1) Ribonucleoprotein complexes (RNPs) were generated by incubating respective guide nucleic acids (gNAs) with MAD7 in the molar ratio of 3:2 gNA:MAD7 for 15 minutes at room temperature immediately before transfection. For Jurkat experiments, the RNP complexes were generated by mixing the respective gNA (150 pmol), MAD7 (100 pmol), and nuclease-free water, unless otherwise stated.
(§2) Lonza 4D Nucleofector with Shuttle unit (V4SC-2960 Nucleocuvette Strips) was used for transfection, following the manufacturer's instructions. […]
(§3) Extracted genomic DNA was quantified using the NanoDrop (ThermoFisher Scientific). […] The DNA was eluted from the beads with nuclease-free water and the size of the purified amplicons analyzed on a 2% agarose E-gel using the E-gel electrophoresis system (ThermoFisher Scientific). In the second PCR, unique pairs of Illumina-compatible indexes (Nextera XT Index Kit v2) were added to the amplicons using the KAPA HiFi HotStart Ready Mix (Roche). […] Sizes of the purified DNA fragments were validated on a 2% agarose gel using the E-gel electrophoresis system (ThermoFisher Scientific), quantified using Qubit dsDNA HS Assay Kit (Thermo Fisher) and then pooled in equimolar concentrations. […] The final library was sequenced on Illumina MiSeq System using the MiSeq Reagent Kit v.2 (300 cycles, 2×250 bp, paired-end reads). […]

PDCD1 protein = assay: PDCD1 knock-out: surface expression of PDCD1 protein by flow cytometry; conditions: Jurkat cells
Description: Flow cytometric assessments were carried out on a CytoFLEX S instrument (Beckmen Coulter) using a 96-well plate format. Measurements of cell viability, PDCD1 expression, GFP expression, and CAR expression were performed on 10,000 or 20,000 single cell events in Jurkat or primary T-cells, respectively.
For detection of PDCD1 knock-out efficiency, approx. 250,000 Jurkat cells per sample were transferred onto 96-well V-bottom cell culture plates and assessed following a series of consecutive washing and staining steps. The first step included centrifuging the cells at 300 g for 5 minutes at 4° C. and discarding the supernatant. Afterwards, the cells were stained using 100 μL Cell Staining Buffer (Biolegend) with APC/Cyanine7 anti-human CD279 (PD-1) antibody (1:100; Biolegend) and incubated for 30 minutes at 4° C. in the dark. The cells were then centrifuged at 300 g for 5 minutes at 4° C. and the supernatant discarded. The next step included two repeats of centrifugation at 300 g for 5 minutes at 4° C., supernatant removal, and cell washing in 150 μL ice-cold Cell Staining Buffer (Biolegend). In the final step, the cells were re-suspended in 100 μL Cell Staining Buffer for the flow cytometry measurements (excitation: red laser; emission: […]).
High-efficiency gNAs identified in our initial analysis were validated by assaying INDEL frequency for the top three or five gNAs for each of the selected immunologically relevant genes (FIG. 14). […] Alternating grey and white zones on the plot represent groups of three to five high-efficiency gNAs per locus. […] Using the CRISPresso2 software, the degree of open reading frame (ORF) disruption for each of the validated gNAs was estimated (FIG. 14). In addition, for four high-efficiency gNAs targeting three different exons at the PDCD1 locus, surface expression of the PDCD1 protein was measured by flow cytometry 4, 7, and 11 days post-transfection (data not shown). […] Average fraction of INDELs leading to frameshifts (dashed line) is approx. 66%. Alternating grey and white zones on the plot represent groups of three to five high-efficiency gNAs per locus.

TIM3 = assay: gNA screen INDEL/frameshift frequency, TIM3; conditions: Jurkat cells; CRISPResso2 ORF disruption analysis
Description: as §1, §2, §3

[3] = measured 4, 7 and 11 days post-transfection, day of value not stated

Substance: MAD7: type V-A Cas nuclease MAD7
- INDEL frequency of MAD7 at predicted off-target sites ([1]; all assayed off-target sites, Pairwise T-test, P≥0.05): No significant INDEL frequency
- editing by PAM motif [2]: demonstrated editing with all eight combinations of YTTN PAM

Substance: crPDCD1 3: high-efficiency gNA targeting the PDCD1 locus (guide CAGUGGCGAGAGAAGACCCCG; listed as RNA, further chemistry not given here)
- surface expression of the PDCD1 protein (PDCD1 protein; [3]): 35%

Substance: crPDCD1 4: high-efficiency gNA targeting the PDCD1 locus (guide CUAGCGGAAUGGGCACCUCAU; listed as RNA, further chemistry not given here)
- surface expression of the PDCD1 protein (PDCD1 protein; [3]): 85%

Substance: crPDCD1_2: gNA targeting the PDCD1 gene at the extracellular domain of the protein (guide UCUGCAGGGACAAUAGGAGCC; listed as RNA, further chemistry not given here)
- off-target activity (INDEL formation) at predicted off-target sites ([1]; 25 predicted sites, up to four mismatches, crPDCD1_2_13 and crPDCD1_2_15 sites, insignificant vs MOCK (P≥0.05)): low-level off-target activity
- surface expression of the PDCD1 protein (PDCD1 protein; 4 days post-transfection): 10%
- surface expression of the PDCD1 protein (PDCD1 protein; day 11 post-transfection): remained at this level

Substance: crPDCD1_5: high-efficiency gNA targeting the PDCD1 locus (guide GUGCUAAACUGGUACCGCAUG; listed as RNA, further chemistry not given here)
- surface expression of the PDCD1 protein (PDCD1 protein; [3]): 85%

Substance: crTIM3_1: validated gNA targeting TIM3 (guide CUUGUAAGUAGUAGCAGCAGC; listed as RNA, further chemistry not given here)
- frameshifts frequency (fraction of frameshift to INDEL) (TIM3): 23%

Substance: crTIM3_3: validated gNA targeting TIM3 (guide UAAGUAGUAGCAGCAGCAGCA; listed as RNA, further chemistry not given here)
- frameshifts frequency (fraction of frameshift to INDEL) (TIM3): 44%
